Results as given in paper PMC10017709, “Structural basis of selective cannabinoid CB2 receptor activation” (Nature Communications, 2023).
“And” between values parts separate entries of the source, which are not always exact repeats. Equal values may be shown once. Read-outs that look alike come from different tables or passages of the source.

Assays:
[1] = biological target: T1, hCB2R (Homo sapiens, UniProt P34972); test: [3H]RO6957022 displacement assay; format: binding; details: for percentage specific [3H]RO6957022 binding (displacement): individual replicates
T1 construct: host or cells: CHO-K1 (CHOK1_hCB2bgal, PathHunter), membranes
T1 sequence (P34972 whole entry): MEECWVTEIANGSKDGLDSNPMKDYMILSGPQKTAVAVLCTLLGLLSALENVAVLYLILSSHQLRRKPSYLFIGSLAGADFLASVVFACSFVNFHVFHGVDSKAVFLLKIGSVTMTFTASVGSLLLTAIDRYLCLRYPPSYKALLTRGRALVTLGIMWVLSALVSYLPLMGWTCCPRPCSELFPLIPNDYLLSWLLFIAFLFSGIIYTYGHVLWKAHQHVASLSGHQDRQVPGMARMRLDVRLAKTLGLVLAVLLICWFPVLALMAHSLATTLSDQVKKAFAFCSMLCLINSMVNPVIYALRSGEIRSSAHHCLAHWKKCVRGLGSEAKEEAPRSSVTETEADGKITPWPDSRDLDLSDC

[2] = biological target: T1, hCB2R; test: [3H]RO6957022 competition association assay; format: binding; details: for percentage specific [3H]RO6957022 binding (competition association): individual replicates
[3] = biological target: T2, CB2R WT (Homo sapiens, UniProt P34972); test: [35S]GTPγS G protein activation assay, CB2R WT; format: biochemical; details: for Emax: CB2R WT, read-out: Emax (%); for [35S]GTPγS binding, percentage of WT / [35S]GTPγS binding, percentage of CP55,940: individual replicates
T2 sequence (P34972 whole entry): as above

[4] = biological target: T3, CB2R-L185^ECL2H (Homo sapiens, UniProt P34972, L185H); test: [35S]GTPγS assay, CB2R L185H mutant; format: biochemical; details: L185H mutant
T3 sequence (P34972 whole entry L185H): as the sequence (P34972 whole entry) above, with L185H counted along it

[5] = biological target: CB2R-L182^ECL2I (Homo sapiens, UniProt P34972, L182I); test: [35S]GTPγS assay, CB2R L182I mutant; format: biochemical; details: L182I mutant
Sequence of CB2R-L182^ECL2I (P34972 whole entry L182I): as the sequence (P34972 whole entry) above, with L182I counted along it

[6] = biological target: CB2R-E181^ECL2D (Homo sapiens, UniProt P34972, E181D); test: [35S]GTPγS assay, CB2R E181D mutant; format: biochemical; details: E181D mutant
Sequence of CB2R-E181^ECL2D (P34972 whole entry E181D): as the sequence (P34972 whole entry) above, with E181D counted along it

[7] = biological target: T4, CB2R-Quadruple^TM1,7 (Homo sapiens, UniProt P34972, C40S/K279T/K33Q/V36I); test: [35S]GTPγS assay, CB2R quadruple mutant; format: biochemical; details: for [35S]GTPγS binding, percentage of WT: QuadrupleTM1,7, individual replicates
T4 sequence (P34972 whole entry K33Q/V36I/C40S/K279T): as the sequence (P34972 whole entry) above, with K33Q, V36I, C40S, K279T counted along it
Protocol: In short, transient HEK293T membrane homogenates (10 µg/well) were diluted in assay buffer (50 mM Tris-HCl (pH 7.4), 5 mM MgCl2, 150 mM NaCl, 1 mM EDTA, 0.05% BSA (w/v) and 1 mM DTT, freshly prepared every day) and were pretreated with 10 µg saponin and 1 µM GDP. For endocannabinoid samples, the membranes were additionally pretreated for 30 min with 50 µM PMSF before agonist addition. […] Basal receptor activity was determined in the presence of vehicle only (0.2% DMSO/acetonitrile). […] Filtration was performed, and filter-bound radioactivity was determined as described under [^3H]RO6957022 Competition Association Assays except for using ice-cold 50 mM Tris-HCl (pH 7.4), 5 mM MgCl2 buffer.

[8] = biological target: T2, CB2R WT; test: [3H]CP55,940 displacement assay, CB2R WT; format: binding
[9] = biological target: CB2R-I110^3.29L (Homo sapiens, UniProt P34972, I110L); test: [3H]CP55,940 displacement assay, CB2R I110L mutant; format: binding
Sequence of CB2R-I110^3.29L (P34972 whole entry I110L): as the sequence (P34972 whole entry) above, with I110L counted along it

[10] = biological target: T3, CB2R-L185^ECL2H; test: [3H]CP55,940 displacement assay, CB2R L185H mutant; format: binding
[11] = biological target: T4, CB2R-Quadruple^TM1,7; test: [3H]CP55,940 displacement assay, CB2R quadruple mutant; format: binding; details: CB2R Quadruple TM1,7 mutant; <5 when curve fit not finished
[12] = biological target: hCB1R WT (Homo sapiens, UniProt P21554); test: [35S]GTPγS G protein activation assay, CB1R WT; format: biochemical; details: CB1R WT; 10 µM agonist
Sequence of hCB1R WT (P21554 whole entry): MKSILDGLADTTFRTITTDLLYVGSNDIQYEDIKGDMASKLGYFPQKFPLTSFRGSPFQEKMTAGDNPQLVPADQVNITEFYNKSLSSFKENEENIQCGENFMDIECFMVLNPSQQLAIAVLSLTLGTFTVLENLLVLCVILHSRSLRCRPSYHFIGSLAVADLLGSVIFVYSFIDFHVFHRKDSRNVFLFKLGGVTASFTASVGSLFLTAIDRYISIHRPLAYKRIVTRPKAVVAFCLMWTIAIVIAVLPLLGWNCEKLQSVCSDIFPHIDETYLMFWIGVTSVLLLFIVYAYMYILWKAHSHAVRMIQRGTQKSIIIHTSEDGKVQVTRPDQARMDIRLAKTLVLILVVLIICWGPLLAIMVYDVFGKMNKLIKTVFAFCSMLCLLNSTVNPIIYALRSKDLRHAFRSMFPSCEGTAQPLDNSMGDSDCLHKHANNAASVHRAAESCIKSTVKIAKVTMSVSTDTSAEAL

[13] = biological target: CB1R-L359^6.51V (Homo sapiens, UniProt P21554, L359V); test: [35S]GTPγS assay, CB1R L359V mutant; format: biochemical; details: CB1R L359V; 10 µM agonist
Sequence of CB1R-L359^6.51V (P21554 whole entry L359V): as the sequence (P21554 whole entry) above, with L359V counted along it

[14] = biological target: CB1R-H270^ECL2L (Homo sapiens, UniProt P21554, H270L); test: [35S]GTPγS assay, CB1R H270L mutant; format: biochemical; details: CB1R H270L; 10 µM agonist
Sequence of CB1R-H270^ECL2L (P21554 whole entry H270L): as the sequence (P21554 whole entry) above, with H270L counted along it

[15] = biological target: CB1R I267ECL2L (Homo sapiens, UniProt P21554, I267L); test: [35S]GTPγS assay, CB1R I267L mutant; format: biochemical; details: CB1R I267L; 10 µM agonist
Sequence of CB1R I267ECL2L (P21554 whole entry I267L): as the sequence (P21554 whole entry) above, with I267L counted along it

[16] = biological target: T5, CB1R D266ECL2E (Homo sapiens, UniProt P21554, D266E); test: [35S]GTPγS assay, CB1R D266E mutant; format: biochemical; details: CB1R D266E; 10 µM agonist
T5 construct: The WT CB1R and CB2R genes were subcloned into vector pcDNA3.1; HA signal peptide (N); expressed in transfected cells; host or cells: HEK293T (transient, membrane homogenates)
T5 sequence (P21554 whole entry D266E): as the sequence (P21554 whole entry) above, with D266E counted along it

[17] = system: CB1R QuadrupleTM1,7; test: [35S]GTPγS assay, CB1R quadruple mutant; format: biochemical, human; details: CB1R Quadruple TM1,7; 10 µM agonist
[18] = at 10 µM compared to WT, read-out: Emax (%)

In the case of `CCCCC/C=C\C/C=C\C/C=C\C/C=C\CCCC(=O)OC(CO)CO` [2-AG, 2-arachidonoylglycerol], the Ki ([1]; CHOK1_hCB2bgal membranes, 10 °C) is reported as 97.3 nM, the “percentage specific [3H]RO6957022 binding (displacement)” value (“percentage specific … (displacement)” below) ([1]; log [agonist] (M) -5) is reported as -4.06% and 1.99% and 1.24% and the “percentage specific … (displacement)” value ([1]; log [agonist] (M) -6) is reported as 9.18% and 29.61% and 23.88%. The “percentage specific … (displacement)” value ([1]; log [agonist] (M) -7) was 74.28% and 92.58% and 77.97%, the “percentage specific … (displacement)” value ([1]; log [agonist] (M) -8) was 95.23% and 106.70% and 113.70% and the Kd ([2]; KD = koff/kon, read-out: Kinetic KD) was 42.7 nM. The “percentage specific [3H]RO6957022 binding (competition association)” value ([2]; Time 1 min) was 2.75% and 8.28% and -0.30%, the “percentage specific [3H]RO6957022 binding (competition association)” value ([2]; Time 3 min) was 14.15% and 22.81% and 17.03% and the “percentage specific [3H]RO6957022 binding (competition association)” value ([2]; Time 5 min) was 22.93% and 20.44% and 8.60%. The “percentage specific [3H]RO6957022 binding (competition association)” value ([2]; Time 7 min) was 18.57% and 22.56% and 19.64%, the “percentage specific [3H]RO6957022 binding (competition association)” value ([2]; Time 10 min) was 21.07% and 23.19% and 30.43% and the “percentage specific [3H]RO6957022 binding (competition association)” value ([2]; Time 20 min) was 26.97% and 35.00% and 33.48%. The “percentage specific [3H]RO6957022 binding (competition association)” value ([2]; Time 30 min) was 25.36% and 45.58% and 22.89%, the “percentage specific [3H]RO6957022 binding (competition association)” value ([2]; Time 45 min) was 33.64% and 44.13% and 30.07% and the “percentage specific [3H]RO6957022 binding (competition association)” value ([2]; Time 60 min) was 37.87% and 46.21% and 40.22%. The “percentage specific [3H]RO6957022 binding (competition association)” value ([2]; Time 90 min) was 43.62% and 64.89% and 33.23%, the “percentage specific [3H]RO6957022 binding (competition association)” value ([2]; Time 120 min) was 44.54% and 60.70% and 44.33% and the “ET (engagement time)” value ([2]; at 1 µM agonist, ET = 1/(kon ∙ 1 × 10-6)) was 18.8 ± 3.61 s. The Emax ([3]; maximum effect at 10 µM compared to WT (Suppl. Table 6)) was 85 ± 2%, the Emax ([3]; maximum effect compared to CP55,940) was 93 ± 22% and the “[35S]GTPγS binding, percentage of WT” value ([3]; log [ligand] (M) -5) was 81.88 percentage of WT and 83.76 percentage of WT and 88.90 percentage of WT. For the same molecule, the “[35S]GTPγS binding, percentage of WT” value ([3]; log [ligand] (M) -6) was 30.38 percentage of WT and 55.12 percentage of WT and 21.88 percentage of WT, the “[35S]GTPγS binding, percentage of WT” value ([3]; log [ligand] (M) -7) was 23.64 percentage of WT and 24.41 percentage of WT and 16.38 percentage of WT and the “[35S]GTPγS binding, percentage of WT” value ([3]; log [ligand] (M) -8) was 45.75 percentage of WT and 38.50 percentage of WT and 15.70 percentage of WT. For the same molecule, the EC50 ([3]; [35S]GTPγS, HEK293T membranes transiently expressing CB2R WT) was 1260 nM, the “[35S]GTPγS binding, percentage of CP55,940” value ([3]; log [agonist] (M) -5) was 64.32% and 135.41% and 79.23% and the “[35S]GTPγS binding, percentage of CP55,940” value ([3]; log [agonist] (M) -6) was 23.86% and 33.33% and 42.53%. The “[35S]GTPγS binding, percentage of CP55,940” value ([3]; log [agonist] (M) -7) was 18.57% and 24.95% and 4.53%, the “[35S]GTPγS binding, percentage of CP55,940” value ([3]; log [agonist] (M) -8) was 35.93% and 23.91% and 2.02% and the EC50 ([4]; HEK293T membranes) was 1260 nM. The Emax [4, 18] was 171 ± 16%, the EC50 ([5]; <5 when curve fit not finished) was over 10000 nM and the Emax [5, 18] was 15 ± 9%. The EC50 ([6]; <5 when curve fit not finished) was over 10000 nM, the Emax [6, 18] was 22 ± 15% and the EC50 ([7]; Quadruple TM1,7 mutant, <5 when curve fit not finished) was over 10000 nM. The Emax ([7]; Quadruple TM1,7 mutant, at 10 µM compared to WT, read-out: Emax (%)) was 6 ± 4%, the “[35S]GTPγS binding, percentage of WT” value ([7]; log [ligand] (M) -5) was 11.95 percentage of WT and 6.85 percentage of WT and -0.68 percentage of WT and the “[35S]GTPγS binding, percentage of WT” value ([7]; log [ligand] (M) -6) was 26.61 percentage of WT and 0.18 percentage of WT. The “[35S]GTPγS binding, percentage of WT” value ([7]; log [ligand] (M) -7) was -4.94 percentage of WT and -35.40 percentage of WT and 2.05 percentage of WT, the “[35S]GTPγS binding, percentage of WT” value ([7]; log [ligand] (M) -8) was -0.27 percentage of WT and -23.76 percentage of WT and 1.32 percentage of WT and the Ki [8] was 1580 nM. For the same molecule, the Ki [9] was 1580 nM, the Ki [10] was 398 nM and the Ki [11] was over 10000 nM. For the same molecule, the Agonist-mediated activation [12] was 1.3 ± 0.1 fold over its basal, the Agonist-mediated activation [13] was 1.4 ± 0.2 fold over its basal and the Agonist-mediated activation [14] was 1.5 ± 0.1 fold over its basal. It also gave an Agonist-mediated activation [15] of 1.1 ± 0.0 fold over its basal, an Agonist-mediated activation [16] of 1.5 ± 0.2 fold over its basal and an Agonist-mediated activation [17] of 1.8 ± 0.1 fold over its basal.
